Data taken from patent US20170037028A1 (BAYER PHARMA AKTIENGESELLSCHAFT, priority 2013, published 2017).

Target: T1, GLUT1 (Homo sapiens, UniProt P11166)
T1 sequence (P11166 1-492): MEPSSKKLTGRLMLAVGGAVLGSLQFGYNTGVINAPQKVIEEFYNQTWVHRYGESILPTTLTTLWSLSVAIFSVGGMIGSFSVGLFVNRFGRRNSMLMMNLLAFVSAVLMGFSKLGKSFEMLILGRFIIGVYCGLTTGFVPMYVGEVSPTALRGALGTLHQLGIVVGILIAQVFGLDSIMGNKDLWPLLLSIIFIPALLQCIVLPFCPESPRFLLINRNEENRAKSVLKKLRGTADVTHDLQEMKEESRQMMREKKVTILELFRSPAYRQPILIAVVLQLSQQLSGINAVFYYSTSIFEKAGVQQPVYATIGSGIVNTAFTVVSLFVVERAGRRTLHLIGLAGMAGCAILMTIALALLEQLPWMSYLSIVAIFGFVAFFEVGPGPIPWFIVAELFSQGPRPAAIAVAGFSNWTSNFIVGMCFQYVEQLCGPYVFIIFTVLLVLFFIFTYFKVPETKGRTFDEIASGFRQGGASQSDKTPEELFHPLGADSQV
Test: Indirect measurement of GLUT1 activity by quantification of intracellular ATP levels (glucose induced ATP increase)
Assay type: cell-based
Design: endogenous in cells; host or cells: DLD1 or CHO-K1
Details: read-out: IC50 regarding glucose induced ATP increase (GLUT1 inhibition)
How it was run: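 Intracellular ATP was measured by CellTiter-Glo luminescence as an indirect readout of transport: glucose-driven for GLUT1, fructose-driven for GLUT2. DLD1 or CHO-K1 cells were used alongside an oxidative phosphorylation inhibitor. Beforehand, cells were held overnight in glucose-free 1% FCS medium to deplete ATP.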

Structure (SMILES)	IC50
Cc1cc(Cn2nc(C)c(NC(=O)c3cc(C(F)(F)F)nc4ccc(Br)cc34)c2C)no1 [Example 1505]	323 nM
Cc1nn(Cc2ncco2)c(C)c1NC(=O)c1cc(C(F)(F)F)nc2ccc(Br)cc12 [Example 1506]	35.1 nM
COCc1noc(Cn2nc(C)c(NC(=O)c3cc(C(F)(F)F)nc4ccc(Br)cc34)c2C)n1 [Example 1507]	711 nM
COCc1noc(Cn2nc(C)c(NC(=O)c3cc(C(N)=O)nc4ccccc34)c2C)n1 [Example 1508]	107 nM
CNC(=O)c1nc(Cn2nc(C)c(NC(=O)c3cc(C(N)=O)nc4ccccc34)c2C)no1 [Example 1509]	16.3 nM
CCCS(=O)(=O)N1CCC(Cn2nc(C)c(NC(=O)c3cc(C(N)=O)nc4ccccc34)c2C)CC1 [Example 1510]	20 nM
CCCCS(=O)(=O)N1CCC(Cn2nc(C)c(NC(=O)c3cc(C(N)=O)nc4ccccc34)c2C)CC1 [Example 1511]	31.8 nM
Cc1nn(CC2CCN(S(=O)(=O)CCCC#N)CC2)c(C)c1NC(=O)c1cc(C(N)=O)nc2ccccc12 [Example 1512]	105 nM
COCCCS(=O)(=O)N1CCC(Cn2nc(C)c(NC(=O)c3cc(C(N)=O)nc4ccccc34)c2C)CC1 [Example 1513]	60.8 nM
Cc1nn(CC2CCN(S(=O)(=O)c3cccnc3)CC2)c(C)c1NC(=O)c1cc(C(N)=O)nc2ccccc12 [Example 1514]	493 nM
Cc1nonc1Cn1nc(C)c(NC(=O)c2cc(C(N)=O)nc3ccccc23)c1C [Example 1515]	319 nM
Cc1nn(CC2CCN(S(=O)(=O)C3CC3)CC2)c(C)c1NC(=O)c1cc(C(N)=O)nc2ccccc12 [Example 1516]	26.1 nM
Cc1nn(CC2CCN(S(=O)(=O)C(C)C)CC2)c(C)c1NC(=O)c1cc(C(N)=O)nc2ccccc12 [Example 1517]	98.7 nM
Cc1nn(CC2CCN(S(=O)(=O)C3CCCC3)CC2)c(C)c1NC(=O)c1cc(C(N)=O)nc2ccccc12 [Example 1518]	69.2 nM
Cc1nn(CC2CCN(S(=O)(=O)c3ccccc3)CC2)c(C)c1NC(=O)c1cc(C(N)=O)nc2ccccc12 [Example 1519]	644 nM
Cc1nonc1Cn1nc(C)c(NC(=O)c2cc(C(F)(F)F)nc3ccc(Br)cc23)c1C [Example 1520]	747 nM
Cc1nn(Cc2noc(C(=O)N(C)C)n2)c(C)c1NC(=O)c1cc(C(N)=O)nc2ccccc12 [Example 1521]	1670 nM
Cc1nn(Cc2noc(C(=O)N(C)C)n2)c(C)c1NC(=O)c1cc(C(F)(F)F)nc2ccc(Br)cc12 [Example 1522]	600 nM
Cc1nn(Cc2nccn2C)c(C)c1NC(=O)c1cc(C(N)=O)nc2ccccc12 [Example 1523]	4140 nM
Cc1nn(Cc2nccn2C)c(C)c1NC(=O)c1cc(C(F)(F)F)nc2ccc(Br)cc12 [Example 1524]	2020 nM
COc1cc(C(=O)Nc2c(C)nn(CC3CNC(=O)O3)c2C)c2ccccc2n1 (centres unmarked) [Example 1525]	4810 nM
COc1cc(C(=O)Nc2c(C)nn(Cc3ccn(C)n3)c2C)c2ccccc2n1 [Example 1526]	556 nM
COc1cc(C(=O)Nc2c(C)nn(Cc3cn4ccccc4n3)c2C)c2ccccc2n1 [Example 1527]	228 nM
Cc1nn(Cc2cn3ccccc3n2)c(C)c1NC(=O)c1cc(C(F)(F)F)nc2ccc(Br)cc12 [Example 1528]	59.4 nM
Cc1c(NC(=O)c2cc(C(N)=O)nc3cc(F)ccc23)c(C(F)(F)F)nn1Cc1ncco1 [Example 1529]	402 nM
COc1cc(C(=O)Nc2c(C)nn(Cc3csc(N4CCOCC4)n3)c2C)c2ccccc2n1 [Example 1530]	893 nM
CCc1cc(Cn2nc(C)c(NC(=O)c3cc(C(N)=O)nc4ccccc34)c2C)on1 [Example 1531]	37.6 nM

Structure (SMILES)	IC50
CCc1cc(Cn2nc(C)c(NC(=O)c3cc(C(N)=O)nc4cc(F)ccc34)c2C)on1 [Example 1532]	16.1 nM
CCS(=O)(=O)N1CCC(Cn2nc(C)c(NC(=O)c3cc(C(F)(F)F)nc4ccc(Br)cc34)c2C)CC1 [Example 1533]	168 nM
CCS(=O)(=O)N1CCC(Cn2nc(C)c(NC(=O)c3cc(C(N)=O)nc4cc(F)ccc34)c2C)CC1 [Example 1534]	19.7 nM
CCc1nc(Cn2nc(C(F)(F)F)c(NC(=O)c3cc(C(N)=O)nc4ccccc34)c2C)no1 [Example 1535]	22.5 nM
CCc1noc(Cn2nc(C(F)(F)F)c(NC(=O)c3cc(C(N)=O)nc4ccccc34)c2C)n1 [Example 1536]	79.1 nM
CCc1noc(Cn2nc(C(F)(F)F)c(NC(=O)c3cc(C(N)=O)nc4cc(F)ccc34)c2C)n1 [Example 1537]	185 nM
Cc1cc(Cn2nc(C(F)(F)F)c(NC(=O)c3cc(C(N)=O)nc4ccccc34)c2C)no1 [Example 1538]	73.1 nM
Cc1cc(Cn2nc(C(F)(F)F)c(NC(=O)c3cc(C(N)=O)nc4cc(F)ccc34)c2C)no1 [Example 1539]	47.3 nM
Cc1c(NC(=O)c2cc(C(N)=O)nc3ccccc23)c(C(F)(F)F)nn1Cc1ncco1 [Example 1540]	275 nM
Cc1cc(Cn2nc(C)c(NC(=O)c3cc(C(N)=O)nc4cc(F)ccc34)c2C)no1 [Example 1541]	15.4 nM
Cc1cc(Cn2nc(C(F)(F)F)c(NC(=O)c3cc(C(N)=O)nc4cc(F)ccc34)c2C)on1 [Example 1542]	84.9 nM
Cc1cc(Cn2nc(C(F)(F)F)c(NC(=O)c3cc(C(N)=O)nc4ccccc34)c2C)on1 [Example 1543]	112 nM
CCc1noc(Cn2nc(C(F)(F)F)c(NC(=O)c3cc(C(N)=O)nc4cc(F)c(Cl)cc34)c2C)n1 [Example 1544]	15.7 nM
CCS(=O)(=O)N1CCC(Cn2nc(C(F)(F)F)c(NC(=O)c3cc(C(N)=O)nc4cc(F)ccc34)c2C)CC1 [Example 1545]	43.1 nM
CCS(=O)(=O)N1CCC(Cn2nc(C(F)(F)F)c(NC(=O)c3cc(C(N)=O)nc4ccccc34)c2C)CC1 [Example 1546]	33.7 nM
Cc1c(NC(=O)c2cc(C(N)=O)nc3cc(F)c(Cl)cc23)c(C(F)(F)F)nn1Cc1ncco1 [Example 1547]	24 nM
CCc1nc(Cn2nc(C(F)(F)F)c(NC(=O)c3cc(C(N)=O)nc4cc(F)ccc34)c2C)no1 [Example 1548]	26.5 nM
Cc1c(NC(=O)c2cc(C(N)=O)nc3ccccc23)c(C(F)(F)F)nn1Cc1cc(C2CC2)on1 [Example 1549]	13.6 nM
Cc1c(NC(=O)c2cc(C(N)=O)nc3cc(F)ccc23)c(C(F)(F)F)nn1Cc1cc(C2CC2)on1 [Example 1550]	34.8 nM
Cc1c(NC(=O)c2cc(C(N)=O)nc3cc(F)c(Cl)cc23)c(C(F)(F)F)nn1Cc1cc(C2CC2)on1 [Example 1551]	11.1 nM
Cc1c(NC(=O)c2cc(C(N)=O)nc3ccccc23)c(C(F)(F)F)nn1Cc1cc(C(C)C)no1 [Example 1552]	194 nM
Cc1c(NC(=O)c2cc(C(N)=O)nc3cc(F)ccc23)c(C(F)(F)F)nn1Cc1cc(C(C)C)no1 [Example 1553]	159 nM
Cc1c(NC(=O)c2cc(C(N)=O)nc3cc(F)c(Cl)cc23)c(C(F)(F)F)nn1Cc1cc(C(C)C)no1 [Example 1554]	116 nM
CCc1cc(Cn2nc(C(F)(F)F)c(NC(=O)c3cc(C(N)=O)nc4ccccc34)c2C)on1 [Example 1555]	18.4 nM
CCc1cc(Cn2nc(C(F)(F)F)c(NC(=O)c3cc(C(N)=O)nc4cc(F)ccc34)c2C)on1 [Example 1556]	41.7 nM
CNC(=O)c1nc(Cn2nc(C(F)(F)F)c(NC(=O)c3cc(C(N)=O)nc4ccccc34)c2C)no1 [Example 1557]	53.8 nM
